Data published in patent publication US20260132129A1 (Genesis Therapeutics, Inc., priority 2022, published 2026).

Molecular target: T1, PI3Kα H1047R (T47D cells) (Homo sapiens, UniProt P42336, H1047R)
T1 construct: endogenous in cells; host or cells: T47D cells
Experiment: PI3Kα cellular assay: pAKT HTRF in T47D cells after EGF stimulation
Assay type: cell-based
Conditions: for IC50: T47D cells (PI3Kα H1047R), pAKT S473 HTRF
Procedure, shortened: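 T47D cells (PIK3CA H1047R) serum-starved 16 h, then treated 1 h at 37 °C with compound (10,000 nM top, 3-fold steps to 0.5 nM). After 10 min stimulation with 20 ng/mL EGF, cells were lysed and pAKT measured by HTRF.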

[1] = selectivity of T47D (H1047R) over SKBR3 (WT) pAKT IC50
[2] = selectivity T47D (H1047R) over SKBR3 (WT), pAKT HTRF
[3] = 1 hr compound, 20 ng/ml EGF 10 min

T1 sequence (P42336 whole entry H1047R): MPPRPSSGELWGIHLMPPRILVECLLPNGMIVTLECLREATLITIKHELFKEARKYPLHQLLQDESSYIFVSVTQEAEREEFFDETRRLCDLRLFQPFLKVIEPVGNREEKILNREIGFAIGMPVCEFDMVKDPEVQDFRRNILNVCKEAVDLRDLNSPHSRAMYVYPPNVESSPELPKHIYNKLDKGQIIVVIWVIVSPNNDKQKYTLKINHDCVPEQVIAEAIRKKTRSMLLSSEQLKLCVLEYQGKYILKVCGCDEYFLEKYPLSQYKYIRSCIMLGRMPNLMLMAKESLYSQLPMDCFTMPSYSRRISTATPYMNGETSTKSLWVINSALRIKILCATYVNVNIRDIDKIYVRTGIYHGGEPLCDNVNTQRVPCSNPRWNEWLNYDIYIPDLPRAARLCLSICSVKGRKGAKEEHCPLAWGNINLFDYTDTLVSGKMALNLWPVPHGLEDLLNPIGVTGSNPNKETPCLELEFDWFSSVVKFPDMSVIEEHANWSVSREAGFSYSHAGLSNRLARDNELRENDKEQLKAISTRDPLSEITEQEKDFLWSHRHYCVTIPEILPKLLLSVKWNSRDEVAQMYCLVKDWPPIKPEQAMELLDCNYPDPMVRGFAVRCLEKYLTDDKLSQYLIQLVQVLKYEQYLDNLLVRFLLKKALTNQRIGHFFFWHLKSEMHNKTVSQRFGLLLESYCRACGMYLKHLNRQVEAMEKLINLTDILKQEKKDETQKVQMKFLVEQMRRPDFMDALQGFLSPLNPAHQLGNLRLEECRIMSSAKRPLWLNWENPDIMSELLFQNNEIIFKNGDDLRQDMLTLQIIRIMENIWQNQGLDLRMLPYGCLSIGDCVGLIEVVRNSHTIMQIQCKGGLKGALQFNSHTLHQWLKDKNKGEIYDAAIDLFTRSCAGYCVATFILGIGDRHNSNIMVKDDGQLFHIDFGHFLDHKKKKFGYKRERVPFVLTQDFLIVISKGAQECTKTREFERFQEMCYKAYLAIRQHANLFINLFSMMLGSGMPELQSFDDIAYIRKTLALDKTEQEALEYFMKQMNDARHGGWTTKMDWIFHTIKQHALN
T1 sequence (P27986 whole entry partner): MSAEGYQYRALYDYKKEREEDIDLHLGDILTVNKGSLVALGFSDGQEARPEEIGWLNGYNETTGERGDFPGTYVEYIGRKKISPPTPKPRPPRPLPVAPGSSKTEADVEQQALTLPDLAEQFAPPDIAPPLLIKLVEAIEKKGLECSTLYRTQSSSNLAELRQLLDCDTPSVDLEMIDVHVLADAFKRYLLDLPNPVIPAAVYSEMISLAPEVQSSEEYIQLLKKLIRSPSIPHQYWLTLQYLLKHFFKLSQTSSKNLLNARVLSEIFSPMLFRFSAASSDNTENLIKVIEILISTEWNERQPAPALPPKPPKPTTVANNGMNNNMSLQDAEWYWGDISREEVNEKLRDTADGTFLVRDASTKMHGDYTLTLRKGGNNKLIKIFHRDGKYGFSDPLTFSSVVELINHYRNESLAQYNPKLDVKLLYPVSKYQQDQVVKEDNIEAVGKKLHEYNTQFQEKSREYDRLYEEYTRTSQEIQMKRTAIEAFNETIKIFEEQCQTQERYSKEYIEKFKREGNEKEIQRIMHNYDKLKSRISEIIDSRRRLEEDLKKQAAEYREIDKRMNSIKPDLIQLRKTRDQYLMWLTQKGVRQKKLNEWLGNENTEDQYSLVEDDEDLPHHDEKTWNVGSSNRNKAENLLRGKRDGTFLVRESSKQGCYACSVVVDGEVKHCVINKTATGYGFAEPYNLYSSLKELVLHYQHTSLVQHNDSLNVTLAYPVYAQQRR

Structure (SMILES) | IC50 (EGF stimulation) | T47D pAKT S473 HTRF IC50 (H1047R): T47D (H1047R) selectivity over SKBR3 (WT) [1] | T47D pAKT S473 HTRF IC50 (H1047R): T47D (H1047R) selectivity over SKBR3 (WT) [2] | IC50 [3]
Cc1cc([C@H](C)Nc2ccccc2C(=O)O)c2nc(N3CC4CC(F)(F)CC4C3)c(C)c(=O)n2c1 (stereo partly drawn) [Compound 850] | > 2000 nM | C (C denotes ≤5-fold) | – | –
Cc1cc([C@@H](C)Nc2ccccc2S(N)(=O)=O)c2nc(-c3ccc4c(C)nn(C5CC5)c4c3)c(C)c(=O)n2c1 [Compound 1027] | 100 to 500 nM | A (A denotes >20-fold) | – | –
Cc1cccc(-c2nc3c(C(C)Nc4ccccc4C(=O)CS(=O)(=O)N(C)C)cc(C)cn3c(=O)c2C)c1 (stereo not drawn) [Compound 1321] | – | – | B (B denotes 20-fold≥value>5-fold) | –
Cc1cc([C@H](C)Nc2ccccc2C(=O)O)c2nc(-c3ccc4c(c3)CC(=O)N4)cc(=O)n2c1 [Compound 766] | – | C (C denotes ≤5-fold) | – | –
Cc1cc([C@H](C)Nc2ccccc2S(N)(=O)=O)c2nc(-c3ccc4c(C)nn(C5CC5)c4c3)c(C)c(=O)n2c1 [Compound 1028] | – | C (C denotes ≤5-fold) | – | –
Cc1cc([C@H](C)Nc2ccccc2C(=O)O)c2nc(Nc3ccc4[nH]c(=O)[nH]c4c3)cc(=O)n2c1 [Compound 574] | – | – | C (C denotes ≤5-fold) | > 2000 nM
Cc1cc(C(C)Nc2ccccc2C(=O)O)c2nc(-c3ccc4c(c3)c(C(F)(F)F)nn4C)cc(=O)n2c1 (stereo not drawn) [Compound 724] | 100 to 500 nM | A (A denotes >20-fold) | – | –
Cc1cc([C@@H](C)Nc2ccccc2C(=O)O)c2nc(-c3ccc(C4CN(C)C4)nc3)c(C)c(=O)n2c1 [Compound 1342] | – | – | C (C denotes ≤5-fold) | –
Cc1cc([C@@H](C)Nc2ccccc2C(=O)O)c2nc(-c3ccc4[nH]c(=O)sc4c3)c(C)c(=O)n2c1 [Compound 945] | < 100 nM | A (A denotes >20-fold) | – | –
Cc1cc(C(C)Nc2ccccc2C(=O)O)c2nc(-c3ccc4c(c3)NC(CO)N4)cc(=O)n2c1 (stereo not drawn) [Compound 466] | – | – | C (C denotes ≤5-fold) | > 2000 nM
Cc1cc([C@H](C)Nc2ccccc2C(=O)O)c2nc(-c3cnc(C#N)c(Cl)c3)c(C)c(=O)n2c1 (single isomer, unassigned) [Compound 978] | < 100 nM | A (A denotes >20-fold) | – | –
Cc1cc([C@H](C)Nc2ccccc2C(=O)O)c2nc(-n3cnc4cc(O)ccc43)cc(=O)n2c1 [Compound 774] | > 2000 nM | C (C denotes ≤5-fold) | – | –
Cc1cc(C(C)Nc2cccc3[nH]nnc23)c2nc(N3CCOCC3)cc(=O)n2c1 (stereo not drawn) [Compound 743] | – | A (A denotes >20-fold) | – | –
Cc1cc([C@H](C)Nc2ccccc2C(=O)NS(C)(=O)=O)c2cc(-c3cccc(F)c3)c(C)c(=O)n2c1 [Compound 1351] | – | – | C (C denotes ≤5-fold) | –
Cc1cc([C@H](C)Nc2ccccc2C(=O)O)c2nc(-c3ccc4nc(CO)[nH]c4c3)cc(=O)n2c1 [Compound 489] | – | – | C (C denotes ≤5-fold) | > 2000 nM
C=CC(=O)Nc1ccc(C(=O)O)c(N[C@@H](C)c2cc(C)cn3c(=O)cc(N4CCOCC4)nc23)c1 [Compound 873] | > 2000 nM | C (C denotes ≤5-fold) | – | –
Cc1cc(C(C)Nc2ccccc2C(=O)O)c2nc(-c3ccc4c(c3)c(C(F)F)nn4C)cc(=O)n2c1 (stereo not drawn) [Compound 769] | 100 to 500 nM | A (A denotes >20-fold) | – | –
Cc1cc([C@@H](C)Nc2ccccc2C(=O)O)c2nc(-c3ccccc3)cc(=O)n2c1 [Compound 628] | – | – | C (C denotes ≤5-fold) | > 2000 nM
Cc1cc([C@@H](C)Nc2ccccc2C(=O)O)c2nc(-c3ccc(C(=O)NO)cc3)cc(=O)n2c1 [Compound 501] | – | – | C (C denotes ≤5-fold) | > 2000 nM
Cc1cc([C@@H](C)Nc2ccccc2C(=O)O)c2nc(-c3ccc(Cl)cc3)c(C)c(=O)n2c1 (single isomer, unassigned) [Compound 963] | < 100 nM | A (A denotes >20-fold) | – | –
Cc1cc([C@@H](C)Nc2ccccc2C(=O)O)c2nc(-c3ccc4[nH]cnc4c3)cc(=O)n2c1 [Compound 516] | – | – | A (A denotes >20-fold) | 100 to 500 nM
